Holding throughout (assay type): cell-based
In assay [1] the test system is Pseudomonas aeruginosa (ATCC 27853). Conditions: ATCC 27853, 3 h, pH 7.4. An excerpt: (§1) The bacterial strains for the antimicrobial assay were obtained from the ATCC (American Type Culture Collection, Manassas, VA, USA) and NCTC (National Collection of Type Cultures, Salisbury, UK). Gram-negative strains were Pseudomonas aeruginosa (ATCC 27853), Escherichia coli (ATCC 8739, ATCC 35218, and ATCC 25922), Salmonella enterica (ATCC 13076), Klebsiella pneumoniae (NCTC 13440), Acinetobacter baumannii (ATCC 17978) and the Gram-positive strains were Enterococcus faecalis (ATCC 29212), Listeria monocytogenes (ATCC 19111), and Staphylococcus aureus (HNCMO112011 and ATCC 25923).
(§2) Determination of antibacterial activity for the peptides was carried out by utilizing a minimum bactericidal concentration (MBC) bioassay. Synthesized peptides were dissolved in sterile water and used from 25 to 0.125 μM in 2-fold dilution series and incubated with ~10^7 log phase bacteria in Potassium-Phosphate Buffer (PPB, pH: 7.4) for three hours as described earlier. After that, 5 μl of each sample was placed on LB agar and the growth of bacteria was monitored after overnight incubation at 37 °C. The lowest concentration of the antimicrobial agents that completely eliminated viable bacteria was considered the minimal bactericidal concentration (MBC).

Assay [2] has as its system Enterococcus faecalis (ATCC 29212). The conditions noted are these: ATCC 29212, 3 h, pH 7.4.
Source text: as §1, §2

In assay [3] the test system is Salmonella enterica (ATCC 13076). The conditions noted are these: ATCC 13076, 3 h, pH 7.4.
Source text: as §1, §2

In assay [4] the test system is Staphylococcus aureus (HNCMO112011). Conditions: HNCMO112011, 3 h, pH 7.4.
Source text: as §1, §2

For assay [5], the system named is Escherichia coli (ATCC 8739). Conditions: ATCC 8739, 3 h, pH 7.4.
Source text: as §1, §2

Assay [6] deals with Listeria monocytogenes (ATCC 19111). The conditions noted are these: ATCC 19111, 3 h, pH 7.4.
Source text: as §1, §2

Assay [7] relates to tested bacteria (ESKAPE pathogens, Listeria monocytogenes, Salmonella enterica). Conditions: 3 h, pH 7.4.
Source text: as §1, §2

For assay [8], the system named is Acinetobacter baumannii (ATCC 17978). The conditions noted are these: ATCC 17978, 3 h, pH 7.4.
Source text: as §1, §2

Assay [9] has as its system Klebsiella pneumoniae (NCTC 13440). Conditions: NCTC 13440, 3 h, pH 7.4.
Source text: as §1, §2

Converted amounts (≈) assume the structure as drawn. Non-standard residues stand in square brackets, D forms with d. Residues, ends and D or L forms follow the SMILES beside them. ξ: configuration not given here. ξTrp(5-Me) = Cc1ccc2[nH]cc(CC(N)C(=O)O)c2c1; ξTrp(7-aza) = NC(Cc1c[nH]c2ncccc12)C(=O)O

With `CC[C@H](C)[C@H](NC(=O)[C@H](CCCCN)NC(=O)[C@H](Cc1ccccc1)NC(=O)[C@H](CC(C)C)NC(=O)[C@@H]1CCCN1C(=O)[C@H](CCCCN)NC(=O)[C@H](CCCCN)NC(=O)[C@H](CO)NC(=O)[C@@H](N)CCCCN)C(=O)N[C@@H](Cc1c[nH]c2ccccc12)C(=O)N[C@@H](CCCCN)C(=O)N[C@@H](CO)C(=O)N[C@H](C(=O)N[C@@H](CCC(=O)O)C(=O)N[C@@H](CC(N)=O)C(=O)N[C@H](C(=O)N[C@@H](CO)C(=O)N[C@H](C(=O)N[C@@H](CC(C)C)C(=O)NC(Cc1c[nH]c2ccc(C)cc12)C(=O)N[C@@H](Cc1ccc(O)cc1)C(=O)N[C@@H](CCCCN)C(N)=O)C(C)C)C(C)C)C(C)C` (stereo partly drawn) [NCR169C17–38C12,17/S-20W^5-Me I] (H-KSKKPLFKIWKSVENVSVL[ξTrp(5-Me)]YK-NH2; N-terminus assumed), the “Minimal bactericidal concentration (MBC) P. a.” value in assay [1] amounted to 6.3 µM (≈ 17.1 µg/mL). The “Minimal bactericidal concentration (MBC) E. f.” value in assay [2] worked out at 12.5 µM (≈ 34 µg/mL). In assay [3], the “Minimal bactericidal concentration (MBC) S. e.” value is 6.3 µM (≈ 17.1 µg/mL). In addition, the “Minimal bactericidal concentration (MBC) S. a.” value in [4] came out at 6.3 µM (≈ 17.1 µg/mL). Also, the “Minimal bactericidal concentration (MBC) E. c.” value in assay [5] was 6.3 µM (≈ 17.1 µg/mL). Also, the “Minimal bactericidal concentration (MBC) L. m.” value in [6] was 6.3 µM (≈ 17.1 µg/mL). Besides, the “MBC against most or all of the tested bacteria” value in [7] lay within 6.3 to 12.5 µM. In [8], the “Minimal bactericidal concentration (MBC) A. b.” value worked out at 6.3 µM (≈ 17.1 µg/mL). In assay [9], the “Minimal bactericidal concentration (MBC) K. p.” value is 12.5 µM (≈ 34 µg/mL).
For `CC[C@H](C)[C@H](NC(=O)[C@H](CCCCN)NC(=O)[C@H](Cc1ccccc1)NC(=O)[C@H](CC(C)C)NC(=O)[C@@H]1CCCN1C(=O)[C@H](CCCCN)NC(=O)[C@H](CCCCN)NC(=O)[C@H](CO)NC(=O)[C@@H](N)CCCCN)C(=O)N[C@@H](Cc1c[nH]c2ccccc12)C(=O)N[C@@H](CCCCN)C(=O)N[C@@H](CO)C(=O)N[C@H](C(=O)N[C@@H](CCC(=O)O)C(=O)N[C@@H](CC(N)=O)C(=O)N[C@H](C(=O)N[C@@H](CO)C(=O)N[C@H](C(=O)N[C@@H](CC(C)C)C(=O)NC(Cc1c[nH]c2ncccc12)C(=O)N[C@@H](Cc1ccc(O)cc1)C(=O)N[C@@H](CCCCN)C(N)=O)C(C)C)C(C)C)C(C)C` (stereo partly drawn) [NCR169C17–38C12,17/S-20W^7-Aza II] (H-KSKKPLFKIWKSVENVSVL[ξTrp(7-aza)]YK-NH2; N-terminus assumed), the “Minimal bactericidal concentration (MBC) P. a.” value in [1] was 12.5 µM (≈ 33.9 µg/mL). Moreover, the “Minimal bactericidal concentration (MBC) E. f.” value in assay [2] turned out to be 12.5 µM (≈ 33.9 µg/mL). Besides, the “Minimal bactericidal concentration (MBC) S. e.” value in assay [3] was 12.5 µM (≈ 33.9 µg/mL). Moreover, the “Minimal bactericidal concentration (MBC) S. a.” value in [4] amounted to 12.5 µM (≈ 33.9 µg/mL). Moreover, the “Minimal bactericidal concentration (MBC) E. c.” value in [5] stood at 12.5 µM (≈ 33.9 µg/mL). Besides, the “Minimal bactericidal concentration (MBC) L. m.” value in [6] worked out at 12.5 µM (≈ 33.9 µg/mL). Also, the “MBC against most or all of the tested bacteria” value in assay [7] was found to be 12.5 µM. Further, the “Minimal bactericidal concentration (MBC) A. b.” value in assay [8] amounted to 12.5 µM (≈ 33.9 µg/mL). Besides, the “Minimal bactericidal concentration (MBC) K. p.” value in assay [9] came to 12.5 µM (≈ 33.9 µg/mL).

Source of the values: paper PMC9917201, “Enhanced Antibacterial Activity of Substituted Derivatives of NCR169C Peptide” (International Journal of Molecular Sciences, 2023).
